Measured values from article PMC7052197 (Scientific Reports, 2020).
Ends that are not written are not given here.

Experiments:
αBgt = αBgt (Bungarus multicinctus, UniProt P60615); assay: biochemical; type: binding
αCtx = αCtx (Naja kaouthia, UniProt P01391); assay: biochemical; type: binding
αCtx, sequence (P01391 whole entry, looked up): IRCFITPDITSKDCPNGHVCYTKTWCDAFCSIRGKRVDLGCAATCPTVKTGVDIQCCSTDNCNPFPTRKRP

αBgt, sequence (P60615 22-95 limits assumed): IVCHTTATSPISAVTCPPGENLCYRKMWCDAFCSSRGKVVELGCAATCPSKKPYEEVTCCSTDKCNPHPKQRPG

Row | Sequence | Kd (αBgt) [nM] | Kd (αCtx) [nM]
1 | WRYYESSLEPYPD [HAP[L9E]] | 91 ± 33 | 7000 ± 1000
2 | WRYYESSLLPYPD [HAP] | 29 ± 8 | > 10000
